One test concerns mice. In words: Pseudomonas (PA103) pneumonia model. It counts as in vivo. The note with it: 2 or 10 mg/kg i.p., PA103 i.t., 18 h. As for the experimental part:
FIG. 7. Compound 12 (2 or 10 mg/kg) was administered to mice though an i.p. injection, and mice were immediately challenged with P. aeruginosa (strain PA103, 1.5*10^4 cfu/mouse, i.t.) or without (control, CON) for an additional 18 h. Mice were then euthanized and lungs were lavaged with saline, harvested, and then homogenized. Lavage protein, cell counts, bacterial count and cytokine secretions (A-C) were measured. Lungs were homogenized before being assayed by immunoblotting. The data are representative of data from n=5-6 mice/group, *P<0.05 versus vehicle.
Compound 12 was tested in two pneumonia model using Pseudomonas or LPS endotoxin.

For another test, the system named is AMPKα1 and AMPKα2 mRNA. In words: AMPK mRNA analysis in Beas2b cells. It counts as cell-based, Human. Conditions: glucose-free media, 18 h. Here is the method:
FIG. 4. (A) Beas2b cells were cultured in DMEM 2% media with glucose for 24 h before switching to glucose-free media. Cells were then exposed to Compound 12 in a dose dependent manner for 18 h before being collected for immunoblotting. (B) Beas2b cells were cultured in DMEM 2% media with glucose for 24 h before Compound 12 treatment in a dose dependent manner. After 18 h, cells were then collected for immunoblotting. (C) Beas2b cells were cultured in DMEM 2% media with glucose for 24 h before switching to glucose-free media. Cells were then exposed to Compound 12 for 18 h before being collected for mRNA analysis. (D) 50K PBMC cells were cultured in 96 well plates before being exposed to Compound 12 for 4 h. Cells were then treated with LPS (10 ng/ml) for additional 2 h. Media were then collected and IL-1b concentration was determined by ELISA.
A SAR study was performed by constructing analogs of Compound 1. […] Compound 12 was further tested in PBMCs. Briefly, PBMCs were treated with Compound 12 at various concentrations for 4 h before exposure to LPS (10 ng/ml) for 2 h.

In a further test the test system is Diet-induced obese mice. The experiment in a line: Hyperinsulinemic euglycemic clamp study. Conditions: BC1618 20 mg/kg twice. It counts as in vivo. Here is the method:
FIG. 30. Diet-induced obese mice were dosed 1× with vehicle or BC1618 (20 mg/kg) prior to overnight fast, followed by a 1× (20 mg/kg) morning dose prior to hyperinsulinemic euglycemic clamp. Body weight measurements are shown.
FIG. 31. From the same study as in FIG. 30, fasting plasma glucose and glucose infusion rate values are shown.
FIG. 32. From the same study as in FIG. 30, glucose infusion rate values are shown.
Diet-induced obese mice were dosed 1× with vehicle or BC1618 (20 mg/kg) prior to overnight fast, followed by a 1× (20 mg/kg) morning dose prior to hyperinsulinemic euglycemic clamp. […] Plasma glucose levels were matched during the clamp (FIG. 31, upper portion). The glucose infusion rate (GIR) required to maintain euglycemia in the 1618 treated mice was approximately 2-fold greater than VEH treated mice (FIG. 31, lower portion and average over last 40 min in FIG. 32, P<0.001), indicating improved whole-body insulin sensitivity.

SMILES strings stand for the structures.

Consider `OC(COc1ccc(F)cc1)CN(Cc1ccccc1)Cc1ccccc1` (stereo not drawn) [Compound 12], for which, in the test on mice, the lavage bacterial counts result is given as “without affecting lavage bacterial counts”, the lavage cell counts entry was “substantially decreased” and the lavage protein concentration result is reported as “substantially decreased”. Further, the lavage proinflammatory cytokines entry in the test on mice (dose dependent) was “effectively reduces”. Besides, the “pAMPK levels within the lung tissue” value in the test with mice (immunoblotting) was “drastically increasing”. Further, the “mRNA levels of both AMPKα1 and AMPKα2” value in the test on AMPKα1 and AMPKα2 mRNA is listed as “effectively decreased”.

Take `OC(COc1ccc(C(F)(F)F)cc1)CN(Cc1ccccc1)Cc1ccccc1` (stereo not drawn) [Compound 23]: the “body weight prior to clamp” value with Diet-induced obese mice is “no difference in body weight”. Moreover, the “glucose infusion rate (GIR) required to maintain euglycemia, relative to VEH treated mice” value in the test with Diet-induced obese mice (P<0.001) was “approximately 2 fold”. The molecule also came in with a fasting plasma glucose in the test on Diet-induced obese mice (before clamp, vehicle 111±3, P=0.12) of 100 ± 6 mg/dL.

The values are drawn from patent publication US11673853B2, “Small molecule AMPK activators” (University of Pittsburgh—Of the Commonwealth System of …, priority 2016, dated 2023).
